Experimental data taken from PMC7129073 (Clinical Microbiology and Infection, 2015).
Converted amounts (≈) assume the structure as drawn.

Legend:
[1] = tested on: beta-haemolytic Streptococcus spp.; assay: NCCLS broth microdilution MIC, 50 mg/L calcium; assay type: cell-based
[2] = tested on: MDR-MRSA; assay: MIC, MBC; assay type: cell-based, Staphylococcus aureus; settings: time kill, two strains
[3] = tested on: Enterococcus spp.; assay: NCCLS broth microdilution MIC, 50 mg/L calcium; assay type: cell-based
[4] = tested on: viridans group Streptococcus spp.; assay: NCCLS broth microdilution MIC, 50 mg/L calcium; assay type: cell-based
[5] = tested on: viridans group streptococci (VgS) and Streptococcus bovis; assay: Broth microdilution and disk diffusion; assay type: cell-based
[6] = tested on: CA-MRSA; assay: MIC, MBC; assay type: cell-based, Staphylococcus aureus
[7] = tested on: S. aureus; assay: NCCLS broth microdilution MIC, 50 mg/L calcium; assay type: cell-based
[8] = tested on: E. faecalis; assay: NCCLS broth microdilution MIC, 50 mg/L calcium; assay type: cell-based
[9] = tested on: coagulase-negative Staphylococci; assay: NCCLS broth microdilution MIC, 50 mg/L calcium; assay type: cell-based
[10] = tested on: E. faecium; assay: NCCLS broth microdilution MIC, 50 mg/L calcium; assay type: cell-based
[11] = tested on: MRSA; assay: Disk diffusion; assay type: cell-based, Staphylococcus aureus; settings: 200 isolates
[12] = tested on: Haemophilus influenzae (HI); assay: MIC; assay type: cell-based; settings: 7489 isolates
[13] = tested on: F. necrophorum; assay: E-test, 13 clinical isolates; assay type: cell-based, Fusobacterium necrophorum
[14] = tested on: Moraxella catarrhalis (MC); assay: MIC; assay type: cell-based; settings: 2497 isolates
[15] = tested on: ERSP; assay: Broth microdilution; assay type: cell-based, Streptococcus pneumoniae
[16] = tested on: Streptococcus pneumoniae; assay: Susceptibility testing; assay type: cell-based; settings: 99 isolates tested
[17] = tested on: S.pneumoniae; assay: Italian survey of severe infections 2003, MIC; assay type: cell-based, Streptococcus pneumoniae
[18] = tested on: ‘wild type’ Staphylococcus epidermidis skin isolates; assay: NCCLS disk diffusion; assay type: cell-based; settings: 52 isolates
[19] = tested on: S. pneumoniae; assay: Broth microdilution; assay type: cell-based, Streptococcus pneumoniae
[20] = tested on: viridans group streptococci (VGS); assay: MIC; assay type: cell-based
[21] = tested on: N.gonorrhoeae; assay: microbe, parasite or virus in culture; assay type: cell-based; settings: Neisseria gonorrhoeae
[22] = tested on: Streptococcus pneumoniae (SPN); assay: MIC; assay type: cell-based; settings: 8378 isolates
[23] = tested on: S. pneumoniae; assay: Broth microdilution; assay type: cell-based, Streptococcus pneumoniae; settings: 275 isolates
[24] = tested on: S. pneumoniae; assay: PROTEKT Italy, NCCLS microdilution; assay type: cell-based, Streptococcus pneumoniae
[25] = tested on: Streptococcus pyogenes (SPY); assay: MIC; assay type: cell-based; settings: 2522 isolates
[26] = tested on: Streptococcus pneumoniae; assay: BSAC agar dilution, lower respiratory isolates UK and Ireland; assay type: cell-based
[27] = tested on: S. pneumoniae; assay: MIC of invasive strains, Saint George Hospital 2001–2004; assay type: cell-based, Streptococcus pneumoniae
[28] = tested on: foreign body infection Staphylococcus epidermidis strains; assay: NCCLS disk diffusion; assay type: cell-based; settings: 86 strains
[29] = tested on: S. pneumoniae; assay: Susceptibility of bacteraemia isolates of children, Taiwan; assay type: cell-based, Streptococcus pneumoniae; settings: 79 isolates
[30] = tested on: H.influenzae; assay: Broth microdilution; assay type: cell-based, Haemophilus influenzae; settings: Haemophilus influenzae
[31] = tested on: PRSP; assay: Broth microdilution; assay type: cell-based, Streptococcus pneumoniae
[32] = tested on: S. pneumoniae; assay type: cell-based, Streptococcus pneumoniae
[33] = tested on: S. pneumoniae (Sp); assay: Broth microdilution, point prevalence study Spain; assay type: cell-based, Streptococcus pneumoniae; settings: 360 isolates, February 2004; penicillin I+R
[34] = tested on: S. pneumoniae; assay: E-test MIC, children with URTI, Brazil; assay type: cell-based, Streptococcus pneumoniae
[35] = tested on: S. pneumoniae (SPN); assay: SENTRY Brazil, NCCLS broth microdilution; assay type: cell-based, Streptococcus pneumoniae
[36] = NCCLS breakpoints (Amox/Clav 2/1 mcg/mL)

CCCCCCCCCC(=O)N[C@@H](Cc1c[nH]c2ccccc12)C(=O)N[C@H](CC(N)=O)C(=O)N[C@@H](CC(=O)O)C(=O)N[C@@H]1C(=O)NCC(=O)N[C@@H](CCCN)C(=O)N[C@@H](CC(=O)O)C(=O)N[C@H](C)C(=O)N[C@@H](CC(=O)O)C(=O)NCC(=O)N[C@H](CO)C(=O)N[C@@H]([C@H](C)CC(=O)O)C(=O)N[C@@H](CC(=O)c2ccccc2N)C(=O)O[C@@H]1C [daptomycin]
% S [1]: 100.0%
MIC range [1]: ≤0.06 to 0.5 µg/mL
Δ Log10 CFU/ml [2]: −4.12 Log10 CFU/ml
% S [3]: 100.0%
MIC range [3]: 0.5 to 4 µg/mL
MIC range [4]: ≤0.06 to 2 µg/mL
MIC90, range between species [5]: 0.06 − 1 mg/L
Susceptible isolates ([5]; 915 isolates, daptomycin breakpoint ≤ 1 mg/L): 99.9%
time to 99.9% kill, as early as ([6]; against all strains (CA-MRSA and MDR-MRSA)): 4 h
Δ Log10 CFU/ml ([6]; time kill, two strains): −3.88 Log10 CFU/ml
% S ([7]; OXA-R): 99.0%
MIC range ([7]; OXA-R): 0.12 to 2 µg/mL
% S ([7]; OXA-S): 99.9%
MIC range ([7]; OXA-S): ≤0.06 to 2 µg/mL
% S [8]: 100.0%
MIC range [8]: ≤0.06 to 4 µg/mL
% S ([9]; OXA-R): 100.0%
MIC range ([9]; OXA-R): ≤0.06 to 1 µg/mL
% S ([9]; OXA-S): 100.0%
MIC range ([9]; OXA-S): 0.12 to 1 µg/mL
% S ([10]; VAN-G (77)): 97.4%
MIC range ([10]; VAN-G (77)): 1—8 mg/L
% S ([10]; VAN-R): 100.0%
MIC range ([10]; VAN-R): 1—4 mg/L
sensitivity [11]: All isolates were sensitive

CC1(C)S[C@@H]2[C@H](NC(=O)Cc3ccccc3)C(=O)N2[C@H]1C(=O)O [penicillin]
MIC90 [12]: 8 ig/ml
MIC range [13]: 0.004 to 256 µg/mL
MIC50 ([13]; Fusobacterium necrophorum): 0.016 µg/mL (≈ 0.0478 µM)
MIC90 ([13]; Fusobacterium necrophorum): > 32 µg/mL
MIC90 [14]: 8 ig/ml
%Sus [15, 36]: 18.6%
MIC90 ([15]; Streptococcus pneumoniae): 4 µg/mL (≈ 12 µM)
resistant isolates [16]: 14.1%
resistance [17]: 20.0%
% resistant [18]: 46.2%
%Sus [19, 36]: 60.6%
MIC90 ([19]; Streptococcus pneumoniae): 2 µg/mL (≈ 5.98 µM)
MIC50 [20]: 0.06 µg/mL (≈ 0.179 µM)
MIC90 [20]: 0.5 µg/mL (≈ 1.5 µM)
MIC range of isolates with reduced susceptibility [20]: 0.25 to 4 µg/mL
isolates with reduced susceptibility ([20]; 107 strains): 18.7%
MIC ([21]; strain 76mu6): 16 µg/mL (≈ 47.8 µM)
MIC ([21]; strain 76mu10): 16 µg/mL (≈ 47.8 µM)
MIC ([21]; strain 92mu6): 0.5 µg/mL (≈ 1.5 µM)
MIC ([21]; strain 92mu13): 0.5 µg/mL (≈ 1.5 µM)
MIC90 [22]: 1 ig/ml
Susceptibility [23]: 83.6%
% S, range between species ([5]; nine species): 65.5–98.1%
total resistance ([24]; year 1: 2002): 23.7%
total resistance ([24]; year 2: 2003): 23.4%
MIC90 [25]: 0.03 ig/ml
resistance (PEN-NS >0.06, TET-R >1, ERY-R >0.5, CIP-R >2 mg/L) ([26]; Ireland 1999–2000, N 66): 40.9%
resistance (same cut-offs) ([26]; Ireland 2000–2001, N 59): 42.4%
resistance (same cut-offs) ([26]; Ireland 2001–2002, N 68): 36.8%
resistance (same cut-offs) ([26]; Ireland 2002–2003, N 89): 24.7%
resistance (same cut-offs) ([26]; Ireland 2003–2004, N 76): 14.5%
resistance (same cut-offs) ([26]; UK 1999–2000, N 595): 7.4%
resistance (same cut-offs) ([26]; UK 2000–2001, N 608): 7.1%
resistance (same cut-offs) ([26]; UK 2001–2002, N 631): 4.6%
resistance (same cut-offs) ([26]; UK 2002–2003, N 683): 6.4%
resistance (same cut-offs) ([26]; UK 2003–2004, N 709): 5.9%
% S [27]: 46%
%R [27]: 54%
% resistant [28]: More than 30%
nonsusceptible isolates (MIC > 0.1 μg/mL) [29]: 82%
MIC90 [30]: > 16 µg/mL
%Sus [31, 36]: 0.0%
MIC90 ([31]; Streptococcus pneumoniae, PRSP): 4 µg/mL (≈ 12 µM)
intermediate susceptible [32]: 30%
resistance [33]: 42%
intermediate (I) ([34]; 137 isolates): 23.4%
resistant (R) ([34]; 137 isolates): 10.2%
susceptible (S) ([34]; 137 isolates): 66.4%
MIC90 ([34]; Streptococcus pneumoniae): 1.5 µg/mL (≈ 4.49 µM)
% R (> 2 mg/L) to PEN [35]; 1998: 3%
% S [35]; 1998: 84%
% R (> 2 mg/L) to PEN [35]; 1999: 6%
% S [35]; 1999: 83%
% R (> 2 mg/L) to PEN [35]; 2000: 5%
% S [35]; 2000: 75%
% R (> 2 mg/L) to PEN [35]; 2001: 8%
% S [35]; 2001: 82%
% R (> 2 mg/L) to PEN [35]; 2002: 8%
% S [35]; 2002: 78%
% R (> 2 mg/L) to PEN [35]; 2003: 10%
% S [35]; 2003: 72%
